From ChEMBL document CHEMBL2157946, “Hydrolytic instability of the important orexin 1 receptor antagonist SB-334867: possible confounding effects on in vivo and in vitro studies” (Bioorg Med Chem Lett, 2012)
Values belong to the molecule of their own block, whether it stands above or below them.

Columns and labels:
[1] = target: T1, Orexin/Hypocretin receptor type 1 (Homo sapiens, UniProt O43613); assay: Antagonist activity at OX1 receptor expressed in RD-HGA16 cells assessed as inhibition of orexin A-induced intracellular calcium mobilization after 15 mins by FLIPR assay; format: functional, cell-based
T1 sequence (O43613 whole entry): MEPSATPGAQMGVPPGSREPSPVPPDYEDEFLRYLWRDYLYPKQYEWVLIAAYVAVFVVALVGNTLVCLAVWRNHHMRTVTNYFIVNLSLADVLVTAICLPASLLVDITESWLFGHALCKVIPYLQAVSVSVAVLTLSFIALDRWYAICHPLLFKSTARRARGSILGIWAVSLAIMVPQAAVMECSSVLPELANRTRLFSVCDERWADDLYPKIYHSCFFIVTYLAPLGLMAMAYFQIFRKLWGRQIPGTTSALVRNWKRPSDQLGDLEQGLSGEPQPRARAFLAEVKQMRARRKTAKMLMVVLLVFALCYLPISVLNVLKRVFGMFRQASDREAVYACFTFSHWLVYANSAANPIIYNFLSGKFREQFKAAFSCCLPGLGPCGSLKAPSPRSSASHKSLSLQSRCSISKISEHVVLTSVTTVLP

[2] = Solubility of the compound in DMSO at 7.5 mg at room temperature after 15 mins by sonication method in presence of encapsin; format: physicochemical; conditions: in vivo, 0.25 h
[3] = test system: Rattus norvegicus; assay: Antagonist activity at OX1 receptor in rat assessed as decrease in alcoholic response at 20 mg/kg, ip after 30 mins; format: functional; parameters: scale not given: the % may be the effect or the level left; conditions: route intraperitoneal
[4] = test system: Rattus norvegicus; assay: Antagonist activity at OX1 receptor in rat assessed as decrease in alcoholic response at 5 mg/kg, ip; format: functional; parameters: scale not given: the % may be the effect or the level left; conditions: route intraperitoneal
[5] = Chemical stability of the compound as refrigerated solution in 100 % DMSO stored in teflon sealed container up to 3 months by NMR analysis; format: physicochemical
[6] = Solubility of the compound in ACSF at 1.6 mg at room temperature after 45 mins by sonication method; format: physicochemical; conditions: in vivo, 0.75 h
[7] = Chemical stability of the compound stored under argon in tightly sealed amber bottle at 15 degC assessed as 1-(2-hydroxy-4-{[(1,5-naphthyridin-4-yl)carbamoyl]amino} phenyl)acetamide formation after 10 months by NMR analysis; format: physicochemical; conditions: 7305 h
[8] = Chemical stability of the compound stored under argon in tightly sealed amber bottle at 15 degC assessed as 1-(2-hydroxy-4-{[(1,5-naphthyridin-4-yl)carbamoyl]amino} phenyl)acetamide formation after 10 months by mass spectrometry analysis; format: physicochemical; conditions: 7305 h

IC50 [1]: > 30 µM
SMILES: CC(=O)Nc1ccc(NC(=O)Nc2ccnc3cccnc23)cc1O

solubility [2]: Insoluble | Stability [5]: Stable | solubility [6]: Insoluble
SMILES: Cc1nc2ccc(NC(=O)Nc3ccnc4cccnc34)cc2o1
Activity [3]: 50% | Activity [4]: 75%

Stability [7]: Unstable | Stability [8]: Unstable
SMILES: Cc1nc2ccc(NC(=O)Nc3ccnc4cccnc34)cc2o1.Cl
